According to patent US20120040996A1, “3-BENZOFURANYL-INDOL-2-ONE DERIVATIVES SUBSTITUTED AT THE 3 POSITION, PREPARATION THEREOF, AND THERAPEUTIC USE THEREOF” (SANOFI, priority 2009, published 2012):
pIC50: −log10 of the molar value.

Target: T1, ghrelin receptor (Rattus norvegicus, UniProt O08725)
T1 construct: Strips of approximately 1 cm (5 mm wide) of gastric fundus were cut out along the longitudinal axis; from tissue; host or cells: rat gastric fundus strips
Test: Ghrelin concentration-response on electrically stimulated isolated rat gastric fundus strips (headed "In Vivo Test")
Conditions: electric-field stimulation, ghrelin 0.1 nM-1 μM, antagonist contact time 30 minutes, read-out: IC50, antagonist activity towards the ghrelin receptor
Procedure: Male Crl CD BR rats (Charles River, Italy) weighing 150-175 g were housed in a chamber at regulated temperature (22±1° C.) and humidity (55±10%) and with a 12-hour lightness-darkness cycle, for at least 7 days before their use. Feed and water were available ad libitum. The feed was removed 18 hours before sacrificing the animals. The rats were sacrificed by cervical dislocation, and the stomach was removed surgically, opened along the shorter curvature and placed in a Krebs solution (of composition (mM): 118.4 NaCl; 4.7 KCl; 2.5 CaCl2; 3.7 NaH2PO4; 1.2 MgSO4; 25 NaHCO3; 5.6 glucose). The animals were cared for and sacrificed according to the Sanofi-Aventis international code of ethics and the international principles governing the care and treatment of laboratory animals (EEC Directive 86/609, DJL358, 1, 12 Dec. 1987). […] The contractions were recorded by computer with a data recording and analysis system (Power Lab, Chart 5) connected to isotonic transducers (Ugo Basile, Varese, Italy) via preamplifiers (Octal Bridge Amp). […] The pKb values for the antagonists were calculated according to the Cheng-Prusoff equation (Kenakin et al., Competitive Antagonism, Pharmacologic Analysis of Drug-Receptor Interaction, 3rd edition, 331-373, Philadelphia, New York; Raven: Lippincott, 1997).

T1 sequence (O08725 whole entry): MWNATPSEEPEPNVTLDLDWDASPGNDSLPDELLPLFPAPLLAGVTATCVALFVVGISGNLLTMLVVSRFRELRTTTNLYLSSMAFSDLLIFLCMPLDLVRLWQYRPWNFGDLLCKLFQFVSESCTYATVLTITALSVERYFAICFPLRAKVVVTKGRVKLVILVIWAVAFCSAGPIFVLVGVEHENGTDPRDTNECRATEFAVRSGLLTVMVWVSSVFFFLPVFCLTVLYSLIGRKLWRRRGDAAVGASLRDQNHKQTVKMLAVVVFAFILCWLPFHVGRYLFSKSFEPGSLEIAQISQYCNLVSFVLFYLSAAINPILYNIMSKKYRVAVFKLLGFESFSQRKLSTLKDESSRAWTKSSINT

A pIC50 of 7.66 was found for `CCN1CCN(CC(=O)NC2(c3ccc4occc4c3)C(=O)Nc3cc(Cl)cc(Cl)c32)CC1` (single isomer, unassigned; (+)) [Example 1, (+)-N-[4,6-Dichloro-3-(benzofuran-5-yl)-2-oxo-2,3-dihydro-1H-indol-3-yl]-2-(4-ethylpiperazin-1-yl)acetamide] in this work.
